Data from the kinase profiling compilation of Christmann-Franck et al. (2016).

Key:
Test in all cases: KINOMEscan competition binding
Settings in all cases: compound 1.0 µM
AURKC (human) = AURKC (human) (UniProt Q9UQB9)
BMX (human) = BMX (human) (UniProt P51813)
CAMK2D (human) = CAMK2D (human) (UniProt Q13557)
CDK11B (human) = CDK11B (human) (UniProt P21127)
CDK13 (human) = CDK13 (human) (UniProt Q14004)
CDK8 (human) = CDK8 (human) (UniProt P49336)
CLK2 (human) = CLK2 (human) (UniProt P49760)
DAPK3 (human) = DAPK3 (human) (UniProt O43293)
[1] = test system: EGFR (human), P00533 [G719C]
[2] = test system: EGFR (human), P00533 [T790M]
[3] = test system: EIF2AK4 KD2 (human), Q9P2K8 [S808G]
EPHA2 (human) = EPHA2 (human) (UniProt P29317)
EPHB3 (human) = EPHB3 (human) (UniProt P54753)
GAK (human) = GAK (human) (UniProt O14976)
INSRR (human) = INSRR (human) (UniProt P14616)
MAP3K11 (human) = MAP3K11 (human) (UniProt Q16584)
MAP3K6 (human) = MAP3K6 (human) (UniProt O95382)
MARK2 (human) = MARK2 (human) (UniProt Q7KZI7)
MARK4 (human) = MARK4 (human) (UniProt Q96L34)
MAST1 (human) = MAST1 (human) (UniProt Q9Y2H9)
MATK (human) = MATK (human) (UniProt P42679)
MYO3B (human) = MYO3B (human) (UniProt Q8WXR4)
NEK3 (human) = NEK3 (human) (UniProt P51956)
NEK5 (human) = NEK5 (human) (UniProt Q6P3R8)
NLK (human) = NLK (human) (UniProt Q9UBE8)
[4] = test system: PIK3CA (human), P42336 [Q546K]
PIP5K1C (human) = PIP5K1C (human) (UniProt O60331)
PKN3 (M.tuberculosis) = PKN3 (M.tuberculosis) (UniProt Q6P5Z2)
PRKAA2 (human) = PRKAA2 (human) (UniProt P54646)
PRKCD (human) = PRKCD (human) (UniProt Q05655)
PRKCH (human) = PRKCH (human) (UniProt P24723)
RPS6KA2 KD1 (human) = RPS6KA2 KD1 (human) (UniProt Q15349)
SRMS (human) = SRMS (human) (UniProt Q9H3Y6)
SRPK2 (human) = SRPK2 (human) (UniProt P78362)
STK10 (human) = STK10 (human) (UniProt O94804)
STK11 (human) = STK11 (human) (UniProt Q15831)
STK32B (human) = STK32B (human) (UniProt Q9NY57)
TEC (human) = TEC (human) (UniProt P42680)
TIE1 (human) = TIE1 (human) (UniProt P35590)
[5] = target: TYK2 JH1 catalytic (human) (UniProt P29597)
TYRO3 (human) = TYRO3 (human) (UniProt Q06418)
TYRO3 (human), sequence (Q06418 whole entry, looked up): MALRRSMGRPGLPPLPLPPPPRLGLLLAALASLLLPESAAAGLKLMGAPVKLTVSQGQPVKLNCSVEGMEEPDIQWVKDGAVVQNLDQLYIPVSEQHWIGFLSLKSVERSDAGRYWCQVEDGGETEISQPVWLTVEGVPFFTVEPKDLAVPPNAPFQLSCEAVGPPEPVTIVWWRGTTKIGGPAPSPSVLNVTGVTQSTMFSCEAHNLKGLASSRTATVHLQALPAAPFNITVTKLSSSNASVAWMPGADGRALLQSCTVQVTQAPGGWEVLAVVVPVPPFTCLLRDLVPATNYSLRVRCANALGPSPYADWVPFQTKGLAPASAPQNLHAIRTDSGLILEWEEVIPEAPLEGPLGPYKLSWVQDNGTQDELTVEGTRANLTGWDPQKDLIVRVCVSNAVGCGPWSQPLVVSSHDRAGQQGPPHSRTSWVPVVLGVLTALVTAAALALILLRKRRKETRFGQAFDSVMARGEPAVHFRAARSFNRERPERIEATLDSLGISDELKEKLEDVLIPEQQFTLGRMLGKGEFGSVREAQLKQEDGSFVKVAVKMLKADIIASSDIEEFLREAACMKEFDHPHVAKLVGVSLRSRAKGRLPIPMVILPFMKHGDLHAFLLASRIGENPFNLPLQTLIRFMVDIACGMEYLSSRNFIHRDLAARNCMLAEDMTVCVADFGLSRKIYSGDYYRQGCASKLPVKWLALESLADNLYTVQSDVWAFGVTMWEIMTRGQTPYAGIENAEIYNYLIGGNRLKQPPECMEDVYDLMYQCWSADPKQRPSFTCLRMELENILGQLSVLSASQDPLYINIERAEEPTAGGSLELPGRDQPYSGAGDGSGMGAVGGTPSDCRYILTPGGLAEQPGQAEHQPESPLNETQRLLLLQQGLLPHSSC

RPS6KA2 KD1 (human), sequence (Q15349 whole entry, looked up): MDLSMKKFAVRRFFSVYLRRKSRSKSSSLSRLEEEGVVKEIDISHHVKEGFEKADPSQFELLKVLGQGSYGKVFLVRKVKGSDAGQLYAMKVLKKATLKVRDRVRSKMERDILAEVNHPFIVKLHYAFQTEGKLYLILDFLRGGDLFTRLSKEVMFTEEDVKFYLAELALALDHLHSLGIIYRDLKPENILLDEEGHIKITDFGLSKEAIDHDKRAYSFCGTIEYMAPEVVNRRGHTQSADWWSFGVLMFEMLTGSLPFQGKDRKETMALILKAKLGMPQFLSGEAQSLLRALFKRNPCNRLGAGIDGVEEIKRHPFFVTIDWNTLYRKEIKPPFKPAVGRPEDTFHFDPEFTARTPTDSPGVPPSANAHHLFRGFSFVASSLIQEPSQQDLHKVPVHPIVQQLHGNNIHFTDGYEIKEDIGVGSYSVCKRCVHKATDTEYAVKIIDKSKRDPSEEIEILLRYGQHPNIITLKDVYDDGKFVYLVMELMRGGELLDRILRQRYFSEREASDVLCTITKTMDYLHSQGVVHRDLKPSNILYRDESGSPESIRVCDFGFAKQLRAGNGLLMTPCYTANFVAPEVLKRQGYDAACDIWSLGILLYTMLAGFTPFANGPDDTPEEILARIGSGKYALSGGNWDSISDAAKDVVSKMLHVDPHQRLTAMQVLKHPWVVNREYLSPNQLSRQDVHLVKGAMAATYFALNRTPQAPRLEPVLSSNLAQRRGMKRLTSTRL
SRMS (human), sequence (Q9H3Y6 whole entry, looked up): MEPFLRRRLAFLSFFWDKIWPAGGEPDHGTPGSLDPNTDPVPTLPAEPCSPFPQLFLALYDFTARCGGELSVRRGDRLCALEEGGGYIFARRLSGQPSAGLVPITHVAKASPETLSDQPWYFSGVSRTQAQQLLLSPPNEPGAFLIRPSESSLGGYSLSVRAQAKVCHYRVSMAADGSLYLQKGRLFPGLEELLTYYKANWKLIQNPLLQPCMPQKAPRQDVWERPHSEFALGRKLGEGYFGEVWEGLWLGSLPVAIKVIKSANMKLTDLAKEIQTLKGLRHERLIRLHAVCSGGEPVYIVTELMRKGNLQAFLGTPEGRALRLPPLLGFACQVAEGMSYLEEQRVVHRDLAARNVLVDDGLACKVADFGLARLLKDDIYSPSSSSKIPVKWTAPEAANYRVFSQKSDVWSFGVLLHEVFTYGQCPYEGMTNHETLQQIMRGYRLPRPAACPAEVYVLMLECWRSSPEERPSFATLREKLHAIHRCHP
MAP3K11 (human), sequence (Q16584 whole entry, looked up): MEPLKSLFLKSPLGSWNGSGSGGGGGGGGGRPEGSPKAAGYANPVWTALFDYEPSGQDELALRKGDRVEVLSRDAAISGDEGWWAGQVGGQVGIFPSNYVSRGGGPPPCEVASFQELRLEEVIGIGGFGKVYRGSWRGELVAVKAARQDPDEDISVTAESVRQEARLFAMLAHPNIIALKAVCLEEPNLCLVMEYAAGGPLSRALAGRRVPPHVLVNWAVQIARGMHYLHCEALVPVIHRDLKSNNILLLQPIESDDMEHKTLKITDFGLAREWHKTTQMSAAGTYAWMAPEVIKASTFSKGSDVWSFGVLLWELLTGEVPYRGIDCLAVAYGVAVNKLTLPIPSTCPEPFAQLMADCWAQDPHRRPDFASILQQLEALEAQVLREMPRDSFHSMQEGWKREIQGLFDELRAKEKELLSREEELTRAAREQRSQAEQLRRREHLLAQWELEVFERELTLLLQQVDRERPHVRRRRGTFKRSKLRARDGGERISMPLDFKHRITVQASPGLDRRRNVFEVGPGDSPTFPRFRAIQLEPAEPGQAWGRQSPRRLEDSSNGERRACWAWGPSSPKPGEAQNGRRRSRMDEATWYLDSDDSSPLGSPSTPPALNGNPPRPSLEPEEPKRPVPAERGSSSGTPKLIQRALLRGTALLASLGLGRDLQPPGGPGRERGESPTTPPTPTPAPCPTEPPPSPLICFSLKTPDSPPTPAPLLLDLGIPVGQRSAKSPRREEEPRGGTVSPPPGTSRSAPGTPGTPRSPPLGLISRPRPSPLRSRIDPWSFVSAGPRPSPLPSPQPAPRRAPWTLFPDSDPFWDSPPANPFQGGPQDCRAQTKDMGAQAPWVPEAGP
NEK5 (human), sequence (Q6P3R8 whole entry, looked up): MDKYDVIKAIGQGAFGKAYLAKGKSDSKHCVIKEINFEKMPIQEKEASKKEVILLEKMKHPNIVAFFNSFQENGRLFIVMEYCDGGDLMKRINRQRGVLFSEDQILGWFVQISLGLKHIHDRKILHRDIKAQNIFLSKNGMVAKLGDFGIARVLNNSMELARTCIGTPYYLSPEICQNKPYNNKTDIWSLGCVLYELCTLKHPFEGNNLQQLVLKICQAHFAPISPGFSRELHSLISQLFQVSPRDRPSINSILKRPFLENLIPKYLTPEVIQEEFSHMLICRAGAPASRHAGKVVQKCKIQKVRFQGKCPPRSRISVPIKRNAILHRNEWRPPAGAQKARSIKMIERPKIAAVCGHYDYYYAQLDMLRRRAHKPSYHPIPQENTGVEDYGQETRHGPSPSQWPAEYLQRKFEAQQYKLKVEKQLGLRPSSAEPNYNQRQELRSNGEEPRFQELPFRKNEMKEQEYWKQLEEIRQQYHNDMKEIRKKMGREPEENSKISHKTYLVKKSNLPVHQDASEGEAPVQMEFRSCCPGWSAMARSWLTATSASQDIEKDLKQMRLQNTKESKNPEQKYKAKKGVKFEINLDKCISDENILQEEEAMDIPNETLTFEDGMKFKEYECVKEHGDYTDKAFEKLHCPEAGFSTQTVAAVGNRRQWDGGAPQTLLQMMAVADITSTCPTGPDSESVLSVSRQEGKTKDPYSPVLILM
PRKCH (human), sequence (P24723 whole entry, looked up): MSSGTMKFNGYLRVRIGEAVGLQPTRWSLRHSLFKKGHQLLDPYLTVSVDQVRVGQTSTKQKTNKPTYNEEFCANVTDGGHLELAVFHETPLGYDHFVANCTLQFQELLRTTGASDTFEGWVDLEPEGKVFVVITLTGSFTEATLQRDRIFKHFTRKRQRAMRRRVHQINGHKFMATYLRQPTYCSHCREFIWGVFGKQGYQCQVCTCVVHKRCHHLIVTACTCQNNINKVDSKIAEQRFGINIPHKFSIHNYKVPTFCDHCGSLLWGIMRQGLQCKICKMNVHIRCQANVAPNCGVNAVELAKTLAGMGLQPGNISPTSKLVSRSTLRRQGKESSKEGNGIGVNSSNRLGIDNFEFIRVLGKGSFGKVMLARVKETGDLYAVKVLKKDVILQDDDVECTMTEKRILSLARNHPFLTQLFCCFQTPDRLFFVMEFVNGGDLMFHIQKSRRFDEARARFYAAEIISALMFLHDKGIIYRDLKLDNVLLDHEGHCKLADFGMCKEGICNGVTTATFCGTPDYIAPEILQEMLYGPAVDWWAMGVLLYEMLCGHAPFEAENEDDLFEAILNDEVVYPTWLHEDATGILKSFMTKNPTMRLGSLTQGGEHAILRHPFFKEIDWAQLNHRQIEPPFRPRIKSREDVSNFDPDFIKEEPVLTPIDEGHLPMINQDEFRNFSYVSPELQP
NLK (human), sequence (Q9UBE8 whole entry, looked up): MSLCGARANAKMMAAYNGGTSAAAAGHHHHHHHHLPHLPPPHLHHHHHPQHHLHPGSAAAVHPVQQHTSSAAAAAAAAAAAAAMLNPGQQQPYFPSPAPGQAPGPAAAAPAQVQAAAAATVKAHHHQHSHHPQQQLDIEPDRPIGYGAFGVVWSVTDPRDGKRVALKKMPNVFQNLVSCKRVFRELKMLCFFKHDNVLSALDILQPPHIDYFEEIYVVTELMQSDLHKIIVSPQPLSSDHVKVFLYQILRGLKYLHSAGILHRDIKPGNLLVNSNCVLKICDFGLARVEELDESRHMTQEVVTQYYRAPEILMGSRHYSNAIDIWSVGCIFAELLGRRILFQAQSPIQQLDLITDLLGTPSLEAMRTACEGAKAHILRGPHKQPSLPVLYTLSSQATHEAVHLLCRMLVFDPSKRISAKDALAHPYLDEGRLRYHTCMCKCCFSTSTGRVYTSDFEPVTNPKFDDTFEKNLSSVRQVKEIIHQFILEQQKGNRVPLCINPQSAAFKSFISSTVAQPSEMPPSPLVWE

## COCCNCCCn1c(C(=O)CF)c(-c2ccc(C)cc2)c2c(N)ncnc21
AURKC (human)
  kinase still bound, per cent of control: 89%
BMX (human)
  kinase still bound, per cent of control: 98%
CAMK2D (human)
  kinase still bound, per cent of control: 82%
CDK11B (human)
  kinase still bound, per cent of control: 100%
CDK13 (human)
  kinase still bound, per cent of control: 90%
CDK8 (human)
  kinase still bound, per cent of control: 100%
CLK2 (human)
  kinase still bound, per cent of control: 100%
DAPK3 (human)
  kinase still bound, per cent of control: 97%
[1]
  kinase still bound, per cent of control: 84%
[2]
  kinase still bound, per cent of control: 100%
[3]
  kinase still bound, per cent of control: 100%
EPHA2 (human)
  kinase still bound, per cent of control: 100%
EPHB3 (human)
  kinase still bound, per cent of control: 100%
GAK (human)
  kinase still bound, per cent of control: 100%
INSRR (human)
  kinase still bound, per cent of control: 100%
MAP3K11 (human)
  kinase still bound, per cent of control: 100%
MAP3K6 (human)
  kinase still bound, per cent of control: 100%
MARK2 (human)
  kinase still bound, per cent of control: 81%
MARK4 (human)
  kinase still bound, per cent of control: 74%
MAST1 (human)
  kinase still bound, per cent of control: 83%
MATK (human)
  kinase still bound, per cent of control: 100%
MYO3B (human)
  kinase still bound, per cent of control: 79%
NEK3 (human)
  kinase still bound, per cent of control: 70%
NEK5 (human)
  kinase still bound, per cent of control: 100%
NLK (human)
  kinase still bound, per cent of control: 96%
[4]
  kinase still bound, per cent of control: 100%
PIP5K1C (human)
  kinase still bound, per cent of control: 100%
PKN3 (M.tuberculosis)
  kinase still bound, per cent of control: 100%
PRKAA2 (human)
  kinase still bound, per cent of control: 75%
PRKCD (human)
  kinase still bound, per cent of control: 90%
PRKCH (human)
  kinase still bound, per cent of control: 100%
RPS6KA2 KD1 (human)
  kinase still bound, per cent of control: 83%
SRMS (human)
  kinase still bound, per cent of control: 99%
SRPK2 (human)
  kinase still bound, per cent of control: 100%
STK10 (human)
  kinase still bound, per cent of control: 100%
STK11 (human)
  kinase still bound, per cent of control: 98%
STK32B (human)
  kinase still bound, per cent of control: 98%
TEC (human)
  kinase still bound, per cent of control: 100%
TIE1 (human)
  kinase still bound, per cent of control: 100%
[5]
  kinase still bound, per cent of control: 100%
TYRO3 (human)
  kinase still bound, per cent of control: 100%
